In brackets after ≈: the same amount, converted by molar mass.
Columns and labels:
[1] = system: Bacillus cereus; experiment: Minimal inhibitory concentration against Bacillus cereus; format: functional
[2] = system: Salmonella enterica subsp. enterica serovar Abony; experiment: Minimal inhibitory concentration against Salmonella abony NCTC 6017; format: functional
[3] = system: Staphylococcus epidermidis; experiment: Minimal inhibitory concentration against Staphylococcus epidermidis ATCC 12228; format: functional
[4] = system: Enterococcus faecalis; experiment: Minimal inhibitory concentration against Enterococcus faecalis (VRE) ATCC 346-VRE; format: functional
[5] = system: Enterococcus faecalis; experiment: Minimal inhibitory concentration against Enterococcus faecalis ATCC 29212; format: functional
[6] = system: Klebsiella pneumoniae; experiment: Minimal inhibitory concentration against Klebsiella pneumoniae ATCC 15380; format: functional
[7] = system: Staphylococcus aureus; experiment: Minimal inhibitory concentration against Staphylococcus aureus ATCC 25923; format: functional
[8] = system: Enterococcus faecium; experiment: Minimal inhibitory concentration against Enterococcus faecium 6A-VRE; format: functional
[9] = system: Escherichia coli; experiment: Minimal inhibitory concentration against Escherichia coli ATCC 25922; format: functional
[10] = system: Enterococcus durans; experiment: Minimal inhibitory concentration against Enterococcus durans ATCC 581; format: functional
[11] = system: Salmonella typhi; experiment: Minimal inhibitory concentration against Salmonella typhi (MDR) ICH 098; format: functional, Salmonella enterica subsp. enterica serovar Typhi; details: Salmonella enterica
[12] = system: Serratia marcescens; experiment: Minimal inhibitory concentration against Serratia marcescens ATCC 12999; format: functional
[13] = system: Pseudomonas aeruginosa; experiment: Minimal inhibitory concentration against Pseudomonas aeruginosa ATCC 27853; format: functional
[14] = system: Staphylococcus aureus; experiment: Minimal inhibitory concentration against methicillin resistant Staphylococcus aureus ST450; format: functional
[15] = system: Staphylococcus epidermidis; experiment: Minimal inhibitory concentration against methicillin resistant Staphylococcus epidermidis ATCC 23760; format: functional
[16] = system: Staphylococcus aureus; experiment: Minimal inhibitory concentration against methicillin resistant Staphylococcus aureus ST450; value ranges from 4-16 ug/mL; format: functional
[17] = system: Staphylococcus aureus; experiment: Minimal inhibitory concentration against Staphylococcus aureus ATCC 25923; value ranges from 4-8 ug/mL; format: functional
[18] = system: Staphylococcus aureus; experiment: Minimal inhibitory concentration against methicillin resistant Staphylococcus aureus ST450; value ranges from 4-8 ug/mL; format: functional
[19] = system: Staphylococcus aureus; experiment: Minimal inhibitory concentration against methicillin resistant Staphylococcus aureus ST450; value ranges from 2-4 ug/mL; format: functional
[20] = system: Staphylococcus aureus; experiment: Minimal inhibitory concentration against methicillin resistant Staphylococcus aureus ST450; value ranges from 1-2 ug/mL; format: functional

| SMILES | MIC [1] | MIC [2] | MIC [3] | MIC [4] | MIC [5] | MIC [6] | MIC [7] | MIC [8] | MIC [9] | MIC [10] | MIC [11] | MIC [12] | MIC [13] | MIC [14] | MIC [15] | MIC [16] | MIC [17] | MIC [18] | MIC [19] | MIC [20] |
| --- | --- | --- | --- | --- | --- | --- | --- | --- | --- | --- | --- | --- | --- | --- | --- | --- | --- | --- | --- | --- |
| CC(=O)Nc1ccc(Sc2ccc(N3C[C@H](C/N=C(/S)NC4CC4)OC3=O)cc2F)cc1 | > 16 µg/mL | > 16 µg/mL | 8 µg/mL (≈ 16.9 µM) | > 16 µg/mL | 8 µg/mL (≈ 16.9 µM) | > 16 µg/mL | 16 µg/mL (≈ 33.7 µM) | 8 µg/mL (≈ 16.9 µM) | > 16 µg/mL | 8 µg/mL (≈ 16.9 µM) | > 16 µg/mL | > 16 µg/mL | > 16 µg/mL | 16 µg/mL (≈ 33.7 µM) | 8 µg/mL (≈ 16.9 µM) | – | – | – | – | – |
| CC(=O)Nc1ccc(Oc2ccc(N3C[C@H](C/N=C(/S)NN)OC3=O)cc2F)cc1 | > 16 µg/mL | > 16 µg/mL | 4 µg/mL (≈ 9.23 µM) | 8 µg/mL (≈ 18.5 µM) | 4 µg/mL (≈ 9.23 µM) | > 16 µg/mL | 4 µg/mL (≈ 9.23 µM) | 4 µg/mL (≈ 9.23 µM) | > 16 µg/mL | 4 µg/mL (≈ 9.23 µM) | > 16 µg/mL | > 16 µg/mL | > 16 µg/mL | – | 8 µg/mL (≈ 18.5 µM) | 16 µg/mL (≈ 36.9 µM) | – | – | – | – |
| CO/C(S)=N\C[C@H]1CN(c2ccc(Sc3ccc(NC(C)=O)cc3)c(F)c2)C(=O)O1 | > 16 µg/mL | > 16 µg/mL | 4 µg/mL (≈ 8.9 µM) | 8 µg/mL (≈ 17.8 µM) | 4 µg/mL (≈ 8.9 µM) | > 16 µg/mL | – | 4 µg/mL (≈ 8.9 µM) | > 16 µg/mL | 4 µg/mL (≈ 8.9 µM) | > 16 µg/mL | > 16 µg/mL | > 16 µg/mL | – | 8 µg/mL (≈ 17.8 µM) | – | 8 µg/mL (≈ 17.8 µM) | 8 µg/mL (≈ 17.8 µM) | – | – |
| CC(=O)NC[C@H]1CN(c2ccc(Oc3ccc(NC(C)=O)cc3)c(F)c2)C(=O)O1 | > 16 µg/mL | > 16 µg/mL | 2 µg/mL (≈ 4.98 µM) | 4 µg/mL (≈ 9.97 µM) | 4 µg/mL (≈ 9.97 µM) | > 16 µg/mL | 2 µg/mL (≈ 4.98 µM) | 4 µg/mL (≈ 9.97 µM) | > 16 µg/mL | 4 µg/mL (≈ 9.97 µM) | > 16 µg/mL | > 16 µg/mL | > 16 µg/mL | – | 4 µg/mL (≈ 9.97 µM) | – | – | – | 4 µg/mL (≈ 9.97 µM) | – |
| CC(=O)NC[C@H]1CN(c2ccc(Oc3ccccc3NC(C)=O)c(F)c2)C(=O)O1 | > 16 µg/mL | > 16 µg/mL | > 16 µg/mL | > 16 µg/mL | > 16 µg/mL | > 16 µg/mL | > 16 µg/mL | > 16 µg/mL | > 16 µg/mL | > 16 µg/mL | > 16 µg/mL | > 16 µg/mL | > 16 µg/mL | > 16 µg/mL | > 16 µg/mL | – | – | – | – | – |
| CC(=O)Nc1ccc(Sc2ccc(N3C[C@H](C/N=C(/S)NN)OC3=O)cc2F)cc1 | > 16 µg/mL | > 16 µg/mL | 4 µg/mL (≈ 8.9 µM) | 8 µg/mL (≈ 17.8 µM) | 4 µg/mL (≈ 8.9 µM) | > 16 µg/mL | 4 µg/mL (≈ 8.9 µM) | 16 µg/mL (≈ 35.6 µM) | > 16 µg/mL | 8 µg/mL (≈ 17.8 µM) | > 16 µg/mL | > 16 µg/mL | > 16 µg/mL | – | 4 µg/mL (≈ 8.9 µM) | – | – | 8 µg/mL (≈ 17.8 µM) | – | – |
| CC(=O)NC[C@H]1CN(c2ccc(Sc3ccc(NC(C)=O)cc3)c(F)c2)C(=O)O1 | > 16 µg/mL | > 16 µg/mL | 1 µg/mL (≈ 2.4 µM) | 2 µg/mL (≈ 4.79 µM) | 2 µg/mL (≈ 4.79 µM) | > 16 µg/mL | 1 µg/mL (≈ 2.4 µM) | 2 µg/mL (≈ 4.79 µM) | > 16 µg/mL | 2 µg/mL (≈ 4.79 µM) | > 16 µg/mL | > 16 µg/mL | > 16 µg/mL | – | 2 µg/mL (≈ 4.79 µM) | – | – | – | – | 2 µg/mL (≈ 4.79 µM) |
| CO/C(S)=N\C[C@H]1CN(c2ccc(Oc3ccc(NC(C)=O)cc3)c(F)c2)C(=O)O1 | > 16 µg/mL | > 16 µg/mL | 8 µg/mL (≈ 18.5 µM) | 8 µg/mL (≈ 18.5 µM) | 8 µg/mL (≈ 18.5 µM) | > 16 µg/mL | 8 µg/mL (≈ 18.5 µM) | 16 µg/mL (≈ 36.9 µM) | > 16 µg/mL | 8 µg/mL (≈ 18.5 µM) | > 16 µg/mL | > 16 µg/mL | > 16 µg/mL | 16 µg/mL (≈ 36.9 µM) | 16 µg/mL (≈ 36.9 µM) | – | – | – | – | – |
| CC(=O)Nc1ccc(Oc2ccc(N3C[C@H](C/N=C(\N)S)OC3=O)cc2F)cc1 | > 16 µg/mL | > 16 µg/mL | 2 µg/mL (≈ 4.78 µM) | 4 µg/mL (≈ 9.56 µM) | 4 µg/mL (≈ 9.56 µM) | > 16 µg/mL | 2 µg/mL (≈ 4.78 µM) | 4 µg/mL (≈ 9.56 µM) | > 16 µg/mL | 2 µg/mL (≈ 4.78 µM) | > 16 µg/mL | > 16 µg/mL | > 16 µg/mL | – | 4 µg/mL (≈ 9.56 µM) | – | – | – | 4 µg/mL (≈ 9.56 µM) | – |
| CC(=O)NC[C@H]1CN(c2ccc(Oc3cccc(NC(C)=O)c3)c(F)c2)C(=O)O1 | > 16 µg/mL | > 16 µg/mL | > 16 µg/mL | > 16 µg/mL | > 16 µg/mL | > 16 µg/mL | > 16 µg/mL | > 16 µg/mL | > 16 µg/mL | > 16 µg/mL | > 16 µg/mL | > 16 µg/mL | > 16 µg/mL | > 16 µg/mL | > 16 µg/mL | – | – | – | – | – |
| CC(=O)Nc1ccc(Sc2ccc(N3C[C@H](C/N=C(\N)S)OC3=O)cc2F)cc1 | > 16 µg/mL | > 16 µg/mL | 1 µg/mL (≈ 2.3 µM) | 2 µg/mL (≈ 4.6 µM) | 2 µg/mL (≈ 4.6 µM) | > 16 µg/mL | 1 µg/mL (≈ 2.3 µM) | 2 µg/mL (≈ 4.6 µM) | > 16 µg/mL | 2 µg/mL (≈ 4.6 µM) | > 16 µg/mL | > 16 µg/mL | > 16 µg/mL | – | 2 µg/mL (≈ 4.6 µM) | – | – | – | – | 2 µg/mL (≈ 4.6 µM) |
| CC(=O)Nc1ccc(Oc2ccc(N3C[C@H](C/N=C(/S)N(C)C)OC3=O)cc2F)cc1 | > 16 µg/mL | > 16 µg/mL | 16 µg/mL (≈ 35.8 µM) | 16 µg/mL (≈ 35.8 µM) | 16 µg/mL (≈ 35.8 µM) | > 16 µg/mL | 16 µg/mL (≈ 35.8 µM) | > 16 µg/mL | > 16 µg/mL | 16 µg/mL (≈ 35.8 µM) | > 16 µg/mL | > 16 µg/mL | > 16 µg/mL | 16 µg/mL (≈ 35.8 µM) | 16 µg/mL (≈ 35.8 µM) | – | – | – | – | – |
| CC(=O)Nc1ccc(Oc2ccc(N3C[C@H](C/N=C(/S)NC4CC4)OC3=O)cc2F)cc1 | > 16 µg/mL | > 16 µg/mL | 16 µg/mL (≈ 34.9 µM) | 16 µg/mL (≈ 34.9 µM) | 8 µg/mL (≈ 17.4 µM) | > 16 µg/mL | > 16 µg/mL | > 16 µg/mL | > 16 µg/mL | 16 µg/mL (≈ 34.9 µM) | > 16 µg/mL | > 16 µg/mL | > 16 µg/mL | 16 µg/mL (≈ 34.9 µM) | 16 µg/mL (≈ 34.9 µM) | – | – | – | – | – |
| CC(=O)Nc1ccc(Sc2ccc(N3C[C@H](C/N=C(/S)N(C)C)OC3=O)cc2F)cc1 | > 16 µg/mL | > 16 µg/mL | 16 µg/mL (≈ 34.6 µM) | 16 µg/mL (≈ 34.6 µM) | 8 µg/mL (≈ 17.3 µM) | > 16 µg/mL | 16 µg/mL (≈ 34.6 µM) | > 16 µg/mL | > 16 µg/mL | 16 µg/mL (≈ 34.6 µM) | > 16 µg/mL | > 16 µg/mL | > 16 µg/mL | > 16 µg/mL | 16 µg/mL (≈ 34.6 µM) | – | – | – | – | – |
| CC(=O)NC[C@H]1CN(c2ccc(N3CCOCC3)c(F)c2)C(=O)O1 [LINEZOLID] | > 16 µg/mL | > 16 µg/mL | 2 µg/mL (≈ 5.93 µM) | – | – | > 16 µg/mL | – | 2 µg/mL (≈ 5.93 µM) | > 16 µg/mL | 2 µg/mL (≈ 5.93 µM) | > 16 µg/mL | > 16 µg/mL | > 16 µg/mL | – | 2 µg/mL (≈ 5.93 µM) | – | – | – | – | – |

Source: ChEMBL document CHEMBL1137831, “Synthesis and antibacterial activity of some aryloxy/thioaryloxy oxazolidinone derivatives” (2004)
